Experimental data taken from PMC7687371, “Quantitative in Vitro to in Vivo Extrapolation (QIVIVE) for Predicting Reduced Anogenital Distance Produced by Anti-Androgenic Pesticides in a Rodent Model for Male Reproductive Disorders” (Environmental Health Perspectives, 2020).

Columns and labels:
[1] = design: method as in U.S. EPA 2012; settings: EPI Suite, experimental preferred over modeled; ref U.S. EPA 2012; cited from earlier work
[2] = PBK model first-order kinetic parameters fitted to in vivo ADME data; design: species or system rat
[3] = Fetal chemical exposure analysis (LC-QTOF) at GD21; format: in vivo, rat; settings: fetal plasma GD21
Method: Dams were decapitated under CO2 /oxygen anesthesia at GD21 and fetuses collected by cesarean section. Prior to decapitation of the fetuses, their BWs and AGDs were recorded. Blood from the dams was collected in heparinized vacutainer tubes, centrifuged at 125×g for 10 min at 4°C to prepare plasma, and, together with the amniotic fluid, frozen directly. Pooled trunk blood from all female and male fetuses of the same litter (female and male blood separately) was collected into heparin-treated capillary tubes approximately 90 min after dosing and the plasma was prepared and stored at −80°C until analysis for pesticides and selected metabolites by liquid chromatography quadrupole time-of-flight mass spectroscopy (LC-QTOF). Details about the LC-QTOF analyses are provided in “Method S1” in Supplemental Material. Amniotic fluid was collected from fetuses by pipetting, pooled within each litter, snap frozen in liquid nitrogen, and subsequently stored at −80 °C .
Method S1. Chemical analysis of pesticide levels
Acetonitrile, methanol, formic acid and 25% ammonium hydroxide, all of LC-MS grade and ethyl acetate were obtained from Sigma Aldrich, Schneldorf, Germany. Isolute bulk C-18 sorbent was obtained from Biotage, Sweden and was washed with acetonitrile and ethyl acetate and dried prior to use. Water was purified on a Milli Q system, Millipore Corporation, US.
Pesticide standards were purchased from Dr. Ehrenstorfer (Augsburg, Germany), LGC-standards (Teddington, Middlesex, UK) and Sigma Aldrich (St. Louis, MO, USA). Acetonitrile used as solvents for the LC-QTOF was LiChrosolv Hypergrade. An ESI-L low concentration tuning mix from Agilent (Santa Clara, CA, USA) was used for tuning of the TOF. A reference solution was prepared containing Purine and HP0921 from Agilent (Santa Clara, CA, USA).
Stock solutions of the pesticides were prepared at 1 mg/ml in acetonitrile, methanol or toluene.
Standard mixtures containing the test compounds were prepared at a concentration of 10 µg/ml acetonitrile and used for preparation of calibration solutions. Isomers eluting very close to each other were avoided in these mixtures. […]
added 200 µl of ice-cold acetonitrile in Eppendorf tubes. Internal standard was added in the form of 10 µl TPP (5 µg/ml) and the extraction was performed by whirl mixing. The tube was then stored on ice for 5 min and then centrifuged at 10,000 x g for 10 min at 4 °C (Ole Dich Instrument, Denmark). An aliquot of the supernatant was transferred to filter vials (0.45 µm) and analysed by […]
Quality control samples were included in each analytical run. These were prepared using the same procedure as for the samples, though using amniotic fluid from untreated control Wistar rats extracted with acetonitrile containing three different levels of the relevant pesticide standards. The resulting spike levels were 0.04, 0.013 and 0.13 µg/ml. […]
fluid or plasma from Sprague Dawley rats was transferred to an Eppendorf vial and added 150 µl of acetonitrile. 50 mg of isolute C-18 sorbent was added to the tube, which was shaken for 5 min, […]
cooled to 4 °C and centrifuged at 10,000 x g for 10 min at 4 °C (Ole Dich Instrument makers, Denmark). 20 µl of the supernatant was transferred to an HPLC vial and mixed with 80 µl of 5%- 75% acetonitrile (this percentage was analyte dependent) prior to analysis by LC-MS.LC -QTOF […]
Pesticide screening was carried out using a liquid chromatography-electrospray ionization-quadrupole-time of flight-mass spectrometer.
The LC system was connected to a Bruker Daltonics, maXis qTOF mass spectrometer equipped with an electrospray ion source operated in positive ion mode (Bruker Daltonics, Bremen, Germany). The ion source settings were: nebulizer pressure 2 bars, drying gas flow 8 l/min, dry gas temperature 200 °C, capillary voltage 2500 V. The scan range was from 80 to 700 m/z with an acquisition rate of 2 Hz. Sodium formate dissolved in 50% 2-propanol was introduced in the ion […]

[4] = target: T1, androgen receptor (AR) (Homo sapiens, UniProt P10275); assay: AR-EcoScreen androgen receptor transcriptional activation assay (AR antagonism); format: cell-based
T1 construct: host or cells: AR-EcoScreen cells
T1 sequence (P10275 1-920): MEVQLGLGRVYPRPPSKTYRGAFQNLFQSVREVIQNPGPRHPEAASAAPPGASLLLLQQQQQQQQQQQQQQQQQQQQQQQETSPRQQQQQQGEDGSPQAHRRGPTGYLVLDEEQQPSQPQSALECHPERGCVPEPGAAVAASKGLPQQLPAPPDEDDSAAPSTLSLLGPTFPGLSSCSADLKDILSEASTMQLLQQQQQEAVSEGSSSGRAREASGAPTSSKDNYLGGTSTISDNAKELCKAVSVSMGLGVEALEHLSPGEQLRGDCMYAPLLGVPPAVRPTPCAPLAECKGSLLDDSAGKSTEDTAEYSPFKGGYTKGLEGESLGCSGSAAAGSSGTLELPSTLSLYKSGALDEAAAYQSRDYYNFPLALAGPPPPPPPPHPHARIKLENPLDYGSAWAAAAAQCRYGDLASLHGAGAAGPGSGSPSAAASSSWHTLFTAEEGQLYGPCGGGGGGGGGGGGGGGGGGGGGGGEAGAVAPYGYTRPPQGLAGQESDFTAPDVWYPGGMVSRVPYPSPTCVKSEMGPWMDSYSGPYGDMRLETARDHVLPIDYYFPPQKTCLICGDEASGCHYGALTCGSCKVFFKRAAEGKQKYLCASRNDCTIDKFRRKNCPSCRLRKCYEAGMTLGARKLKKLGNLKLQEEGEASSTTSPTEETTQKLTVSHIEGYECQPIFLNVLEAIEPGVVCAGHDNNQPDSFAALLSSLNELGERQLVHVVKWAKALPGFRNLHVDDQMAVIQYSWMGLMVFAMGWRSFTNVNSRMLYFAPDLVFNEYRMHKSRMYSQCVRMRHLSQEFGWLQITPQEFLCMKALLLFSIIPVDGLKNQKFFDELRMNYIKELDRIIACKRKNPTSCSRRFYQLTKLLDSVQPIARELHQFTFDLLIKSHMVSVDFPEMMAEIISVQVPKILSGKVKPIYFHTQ
Method: Experiments were run with three technical replicates and repeated three times. The mean value of technical replicates represents one biological replicate. AR-EcoScreen™ cells (JCRB1328; Japanese Collection of Research Bioresources) were grown in CellBIND® surface cell culture flasks (Corning Inc.) in growth medium consisting of Gibco® Dulbecco’s Modified Eagle’s Medium/F-12 (DMEM/F-12) Nutrient Mixture with L-glutamine and 4-(2-hydroxyethyl)-1-piperazineethanesulfonic acid (HEPES) and without phenol red supplemented with 5% fetal bovine serum (FBS), 1% penicillin-streptomycin, 200μg/mL Zeocin™ selection reagent, and 100μg/mL Hygromycin B (all reagents from Invitrogen, Life Technologies). The cells were incubated at 37°C in a humidified atmosphere of 5% carbon dioxide ( CO2 ) and 95% air. On the day before the experiment, cells were plated in white 96-well plates (Corning Inc.) at a density of 9,000 cells/well in assay medium consisting of Gibco® DMEM/F-12 Nutrient Mixture medium, 1% penicillin-streptomycin, with 5% dextran-coated charcoal-treated FBS (all reagents from Invitrogen, Life Technologies). On the following day, the medium was changed to assay medium containing the known AR agonist R1881 (Perkin Elmer) in 2-fold serial dilutions from 0.008 to 1 nM or the known AR antagonist hydroxyflutamide (CASRN 52806-53-8, Toronto Research Chemicals) in 3-fold serial dilutions from […] together with 0.1 nM R1881. […] The DMSO vehicle concentrations were kept constant in all wells (0.1%). Following approximately 20 h of exposure to test compounds firefly luminescence was measured in a luminometer (LUMIstar® Galaxy, BMG LABTECH) using Dual-Glo® Luciferase Reagent from the Dual-Glo® Luciferase Assay System from Promega. Cell viability was measured by Renilla luminescence using Dual-Glo® Stop & Glo® Reagent from the Dual-Glo® Luciferase Assay System.

SMILES: CONC(=O)Nc1ccc(Cl)c(Cl)c1 [DPMU, 1-(3,4-Dichlorophenyl)-3-methoxyurea]
- log Kow [1]: 2.70
- Urine excretion rate from kidney (L/h) KUrine ([2]; PBK model parameter): 0.05 L/h
- Metabolism rate in liver, Metabolite ([2]; conversion of parent compound into active metabolite): 0.22 L/h
- Metabolism rate in liver, Total (L/h) KMetab ([2]; metabolic clearance, PBK model parameter): 0.02 L/h
- Measured concentration in male fetuses ([3]; dams dosed linuron 25 mg/kg BW per day): 5.0 µM
- Measured concentration in male fetuses ([3]; dams dosed linuron 50 mg/kg BW per day): 9.6 µM
- Measured concentration in male fetuses ([3]; dams dosed linuron 75 mg/kg BW per day): 21.4 µM
- IC50 [4]: 4 µM
